pKd: −log10 of the molar value. Numbered stars: 1 amine (or outer) side, 2 acyl side, 3 side chain; on linkers, the order of the positions; unused ones are H or OH. Bridge positions count the residues as written; N and C are the ends. Square brackets hold non-standard residues; d marks the D form. Peptide text beside a SMILES is read from it. * marks the point of attachment. DOTA = O=C(O)CN1CCN(CC(=O)O)CCN(CC(=O)*)CCN(CC(=O)O)CC1; TATA = O=C(CC[*:1])N1CN(C(=O)CC[*:2])CN(C(=O)CC[*:3])C1; d(hArg) = N=C(N)NCCCC[C@@H](N)C(=O)O; dHyp = O=C(O)[C@H]1C[C@H](O)CN1; dCba = N[C@H](CC1CCC1)C(=O)O; βAla = NCCC(=O)O; Sar = CNCC(=O)O
Molecular target: T1, Human EphA2 (Homo sapiens, UniProt P29317)
T1 construct: Human EphA2 (residues 27-529) was cloned into pEXPR-IBA44; made in house; host or cells: HEK293 f/s cells
T1 sequence (P29317 27-529): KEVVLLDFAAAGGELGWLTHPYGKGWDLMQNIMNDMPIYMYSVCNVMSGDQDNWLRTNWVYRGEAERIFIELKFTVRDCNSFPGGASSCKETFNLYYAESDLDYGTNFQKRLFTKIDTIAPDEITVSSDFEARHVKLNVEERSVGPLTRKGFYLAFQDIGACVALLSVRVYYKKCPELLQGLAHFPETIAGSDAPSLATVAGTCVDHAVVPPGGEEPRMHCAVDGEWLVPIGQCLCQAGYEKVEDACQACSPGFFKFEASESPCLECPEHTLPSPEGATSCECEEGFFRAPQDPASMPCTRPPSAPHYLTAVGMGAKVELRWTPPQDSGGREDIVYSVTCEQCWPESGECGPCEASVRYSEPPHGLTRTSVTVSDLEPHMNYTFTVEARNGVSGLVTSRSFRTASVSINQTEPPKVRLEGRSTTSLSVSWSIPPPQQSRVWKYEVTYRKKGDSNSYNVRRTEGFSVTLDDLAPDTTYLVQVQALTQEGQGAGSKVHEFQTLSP
Experiment: SPR binding to human EphA2
Protocol: Human EphA2 (residues 27-529) was cloned into pEXPR-IBA44 between the 5' NheI and 3' BsaI sites to make constructs expressing a BM40 signal sequence and C-terminal 6xHIS tag. For the expression and purification of the protein, HEK293 f/s cells at 1 x 10^6/mL in freestyle media (Thermo Fisher) were transfected with 1 µg DNA per million cells by PEI either 2:1 or 3:1 PEI:DNA ratio. On day 2 valproic acid was added to a 2.2 mM concentration. The supernatant was harvested 5 days post transfection and loaded on a 1 ml Ni-NTA agarose resin (Thermo Fisher) (wash buffer: 20 mM HEPES pH 7.6, 0.5 M NaCl, 5 mM imidazole, 0.01% Tween-20 buffer; elution buffer: 20 mM HEPES pH 7.6, 0.5 M NaCl, 300 mM imidazole, 0.01% Tween-20). The protein was concentrated to a volume of 2 mL, loaded onto an S-200 Superdex column (GE Healthcare) and eluted with 20 mM HEPES pH 7.6, 150 mM NaCl, 0.01% Tween-20 at a flow rate of 1 mL/min. Fractions were collected and those containing human EphA2 protein were concentrated for further use.
SPR experiments were performed on a Biacore 8K+ (Cytiva Life Sciences, USA) instrument, with methods matched for both human and mouse EphA2 protein. Protein was captured on to a Cytiva NTA sensor chip (Cytiva Life Sciences), via the expressed His-tag; this was followed by primary amine coupling chemistry to covalently immobilize the protein to the chip at 25°C. Initially the surface was injected with 0.5 mM NiCl2 for 2 minutes, followed by activation of the carboxymethyl dextran surface for 7 minutes using an injection of a 1:1 ratio of 0.4 M 1-ethyl-3-(3-dimethylaminopropyl) carbodiimide hydrochloride (EDC)/0.1 M N-hydroxy succinimide (NHS) at a flow rate of 10 µL/min.
Human EphA2 protein was captured to the Ni-NTA surface to a level of 200-300 RU and Mouse EphA2 to 500-800 RU; the residual activated groups were then blocked with a 7 minute injection of 1 M ethanolamine (pH 8.5):HBS-N (1:1). Finally, the Ni-NTA surface was chelated with a 1-minute injection of 350 mM EDTA.
Peptide was prepared in PBS/0.05% Tween 20 with a final DMSO concentration of 0.5%. The top peptide concentration was 100 or 500 nM and 5 further 3-fold dilutions. The peptide was titrated over the chip using single cycle kinetics at 25°C at a flow rate of 75 µL/min with 60 second association and 4000 second dissociation. All data were double referenced for blank injections and reference surface using standard processing procedures. Data was characterized with a 1:1 kinetic binding model to determine kinetic rate constants ka (M^-1s^-1) and kd (s^-1) and equilibrium dissociation constant KD (nM). All data processing was performed using Cytiva Insight Evaluation (Cytiva Life Sciences, USA).

pKd (human EphA2, read-out: no binding up to (peptide concentration)): < 5.30
binding to human EphA2 by SPR (in words): no binding
SMILES: CC(C)C[C@H]1NC(=O)[C@H]2CCCN2C(=O)[C@@H](CC(N)=O)NC(=O)[C@@H](C(C)C)NC(=O)[C@@H](CC2CCC2)NC(=O)[C@H]2C[C@H](O)CN2C(=O)[C@H](NC(=O)[C@@H](CC(=O)O)NC(=O)[C@@H](CCCCNC(=N)N)NC(=O)[C@@H](C)NC(=O)CN(C)C(=O)CN(C)C(=O)CN(C)C(=O)CN(C)C(=O)CN(C)C(=O)CN(C)C(=O)CN(C)C(=O)CN(C)C(=O)CN(C)C(=O)CN(C)C(=O)CCNC(=O)CN2CCN(CC(=O)O)CCN(CC(=O)O)CCN(CC(=O)O)CC2)CSCCC(=O)N2CN3CN(C2)C(=O)CCSC[C@@H](NC1=O)C(=O)N[C@H](CC(C)C)C(=O)N[C@H](Cc1c[nH]cn1)C(=O)N1CCC[C@@H]1C(=O)N[C@@H](CC(=O)O)C(=O)N[C@H](Cc1c[nH]c2ccccc12)C(=O)N[C@H](CCCCNC(=N)N)C(=O)N[C@@H](C(N)=O)CSCCC3=O [BCY26443, [DOTA]-[B-Ala]-[Sar10]-[dAla]-[dHArg]-[dAsp]-[dCys]-[dHyP]-[dCba]-[dVal]-[dAsn]-[dPro]-[dLeu]-[dCys]-[dLeu]-[dHis]-[dPro]-Asp-[dTrp]-[dHArg]-[dCys]-CONH2] ({DOTA-βAla}-[Sar][Sar][Sar][Sar][Sar][Sar][Sar][Sar][Sar][Sar][dA][d(hArg)][dD][dC][dHyp][dCba][dV][dN][dP][dL][dC][dL][dH][dP]D[dW][d(hArg)][dC]-NH2; linker 14-21-28 via TATA)
